Data set [1] can be described thus: Drug recovery in Sprague-Dawley rat urine assessed as retention time treated with luteolin at 6.5 mg/kg, iv by reverse-phase HPLC method. Type of data set: ADME, organism-based. To be noted: in vivo. Further details: dose 6.5 mg/kg, route intravenous.
Data set [2] is described as follows: Half life in Sprague-Dawley rat treated with luteolin at 6.5 mg/kg, iv. Type of data set: ADME, organism-based. Also noted: dose 6.5 mg/kg, route intravenous. As to conditions: in vivo.
The subject of a further data set is Liver microsome. The data set can be described thus: Stability in Sprague-Dawley rat liver microsomes at 10 uM after 10 to 30 mins by HPLC analysis. Type of data set: ADME.
Data set [3] deals with Kidney. The data set can be described thus: Drug metabolism in Sprague-Dawley rat kidney homogenate treated with luteolin at 20 uM after 20 to 60 mins. It is filed as ADME, tissue-based. To be noted: tissue homogenate.
The next data set has as its system Rattus norvegicus. The data set can be described thus: Clearance in Sprague-Dawley rat treated with luteolin at 6.5 mg/kg, iv. To be noted: in vivo. Further details: dose 6.5 mg/kg, route intravenous. It is filed as ADME, organism-based.
Data set [4] in a line: Mean residence time (0 to infinity) in Sprague-Dawley rat treated with luteolin at 6.5 mg/kg, iv. It is filed as ADME, organism-based. Further details: dose 6.5 mg/kg, route intravenous. As to conditions: in vivo.
Data set [5] can be described thus: Drug metabolism in Sprague-Dawley rat erythrocytes homogenate treated with luteolin at 20 uM after 20 to 60 mins in presence of COMT inhibitor entacapone. Type of data set: ADME, cell-based. As to conditions: erythrocyte.
The nature of data set [6]: Volume of distribution in Sprague-Dawley rat treated with luteolin at 6.5 mg/kg, iv. Type of data set: ADME, organism-based. As to conditions: in vivo. Further details: dose 6.5 mg/kg, route intravenous.
Data set [7] is described as follows: Drug excretion in Sprague-Dawley rat urine treated with luteolin at 6.5 mg/kg, iv after 24 hrs co-treated with COMT inhibitor entacapone. Type of data set: ADME, organism-based. Also noted: dose 6.5 mg/kg, route intravenous. To be noted: read-out: Drug excretion.
Data set [8] deals with Liver. Put plainly: Drug metabolism in Sprague-Dawley rat liver homogenate treated with luteolin at 20 uM after 20 to 60 mins in presence of COMT inhibitor entacapone. Type of data set: ADME, tissue-based. As to conditions: tissue homogenate.
In data set [9] the test system is Small intestine. Put plainly: Drug metabolism in Sprague-Dawley rat small intestine homogenate treated with luteolin at 20 uM after 20 to 60 mins in presence of COMT inhibitor entacapone. Type of data set: ADME, tissue-based. As to conditions: tissue homogenate.
Data set [10] deals with Liver. The data set can be described thus: Drug metabolism in Sprague-Dawley rat liver homogenate treated with luteolin at 20 uM after 20 to 60 mins. Type of data set: ADME, tissue-based. To be noted: tissue homogenate.
Data set [11] has as its system Lung. The data set can be described thus: Drug metabolism in Sprague-Dawley rat lung homogenate treated with luteolin at 20 uM after 20 to 60 mins. To be noted: tissue homogenate. Type of data set: ADME, tissue-based.
The test system of data set [12] is Lung. Put plainly: Drug metabolism in Sprague-Dawley rat lung homogenate treated with luteolin at 20 uM after 20 to 60 mins in presence of COMT inhibitor entacapone. Type of data set: ADME, tissue-based. As to conditions: tissue homogenate.
Data set [13] relates to Kidney. The data set can be described thus: Drug metabolism in Sprague-Dawley rat kidney homogenate treated with luteolin at 20 uM after 20 to 60 mins in presence of COMT inhibitor entacapone. It is filed as ADME, tissue-based. To be noted: tissue homogenate.
Data set [14] has as its system Small intestine. Put plainly: Drug metabolism in Sprague-Dawley rat small intestine homogenate treated with luteolin at 20 uM after 20 to 60 mins. Type of data set: ADME, tissue-based. To be noted: tissue homogenate.
Data set [15] can be described thus: AUC (0 to t) in Sprague-Dawley rat treated with luteolin at 6.5 mg/kg, iv. It is filed as ADME, organism-based. Further details: dose 6.5 mg/kg, route intravenous. To be noted: plasma.
Data set [16] in a line: Drug metabolism in Sprague-Dawley rat erythrocytes homogenate treated with luteolin at 20 uM after 20 to 60 mins. It is filed as ADME, cell-based. To be noted: erythrocyte.
The nature of data set [17]: Drug excretion in Sprague-Dawley rat urine treated with luteolin at 6.5 mg/kg, iv after 24 hrs. It is filed as ADME, organism-based. Also noted: dose 6.5 mg/kg, route intravenous. As to conditions: read-out: Drug excretion.
Data set [18] can be described thus: Cmax in Sprague-Dawley rat treated with luteolin at 6.5 mg/kg, iv. Type of data set: ADME, organism-based. Also noted: dose 6.5 mg/kg, route intravenous. To be noted: in vivo.
The nature of data set [19]: AUC (0 to infinity) in Sprague-Dawley rat treated with luteolin at 6.5 mg/kg, iv. Type of data set: ADME, organism-based. To be noted: plasma. Also noted: time infinity, dose 6.5 mg/kg, route intravenous.
Data set [20] in a line: Mean residence time (0 to t) in Sprague-Dawley rat treated with luteolin at 6.5 mg/kg, iv. It is filed as ADME, organism-based. Also noted: dose 6.5 mg/kg, route intravenous. To be noted: in vivo.

As usually defined, the half-life is the time needed for the level to fall by half in the phase considered. Low values mean rapid decline, high ones slow decline. By clearance is commonly meant the volume of plasma or blood freed of the substance per unit of time. Read a low clearance as a low capacity for elimination. As usually defined, the MRT inf is a mean duration of stay, worked out from the concentration-time curve. As a reminder, the Vd is the apparent volume that relates the amount in the body to the concentration in plasma or blood. As usually defined, the AUC(0-t) is the area under the concentration-time curve up to a stated or last time point. The low end stands for low exposure, the high end for high exposure. As usually defined, the Cmax is the highest concentration seen after dosing. What is called AUC(0-inf) is the area under the concentration-time curve extrapolated to infinity. Low values mean low exposure, high ones high exposure. The MRT last is the average time that molecules of a dose stay in the body. For the compound `COc1cc(-c2cc(=O)c3c(O)cc(O)cc3o2)ccc1O` [CHRYSOERIOL], in data set [1], the Retention_time was found to be 29.35 min. This compound showed a half-life in [2] of 1.57 h. Moreover, the Stability entry in the data set on Liver microsome was “Unstable”. The Drug metabolism result in the data set on Kidney [3] is “metabolite_detected”; in data set [5] it was “metabolite_not_detected”; in the data set with Liver [8], “metabolite_not_detected”; in the data set with Small intestine [9], “metabolite_not_detected”; with Liver [10], “metabolite_detected”; in the data set on Lung [11] it was “metabolite_detected”. The Drug metabolism entry was “metabolite_not_detected” with Lung [12], “metabolite_not_detected” in the data set with Kidney [13], “metabolite_detected” in the data set with Small intestine [14] and “metabolite_detected” in data set [16]. In the data set on Rattus norvegicus, this compound came in with a clearance of 49 mL/min/kg. The compound further displayed an MRT inf in [4] of 1.76 h. In [6], this compound gave a Vd of 6.34 L/kg. The dose excreted at 24 h in [7] was 0.451%; in data set [17], 1.92%. The compound also displayed an AUC(0-t) in data set [15] of 2090 ng·h/mL. Also, in [18], the peak level (Cmax) was 2060 ng/mL. The AUC(0-inf) in data set [19] was determined as 2280 ng·h/mL. Also, in data set [20], the MRT last amounted to 1.24 h.

For the origin of these results see ChEMBL document CHEMBL3525960, “Role of catechol-O-methyltransferase in the disposition of luteolin in rats” (Drug Metab Dispos, 2011).
